How the values were obtained:
[1] = molecular target: mushroom TYR (tyrosinase); assay: dopachrome formation from L-DOPA (A475), commercial mushroom TYR; IC50 […] at […] L-DOPA, […] at […]; also traps dopaquinone; format: biochemical
human TYR (tyrosinase) = molecular target: T1, human TYR (tyrosinase) (Homo sapiens, UniProt P14679); assay: dopachrome formation (A475) in lysate of HEK293 cells expressing human TYR; […] inhibition at […] (dopaquinone trapping may contribute); format: cell-based
T1 sequence (P14679 19-529): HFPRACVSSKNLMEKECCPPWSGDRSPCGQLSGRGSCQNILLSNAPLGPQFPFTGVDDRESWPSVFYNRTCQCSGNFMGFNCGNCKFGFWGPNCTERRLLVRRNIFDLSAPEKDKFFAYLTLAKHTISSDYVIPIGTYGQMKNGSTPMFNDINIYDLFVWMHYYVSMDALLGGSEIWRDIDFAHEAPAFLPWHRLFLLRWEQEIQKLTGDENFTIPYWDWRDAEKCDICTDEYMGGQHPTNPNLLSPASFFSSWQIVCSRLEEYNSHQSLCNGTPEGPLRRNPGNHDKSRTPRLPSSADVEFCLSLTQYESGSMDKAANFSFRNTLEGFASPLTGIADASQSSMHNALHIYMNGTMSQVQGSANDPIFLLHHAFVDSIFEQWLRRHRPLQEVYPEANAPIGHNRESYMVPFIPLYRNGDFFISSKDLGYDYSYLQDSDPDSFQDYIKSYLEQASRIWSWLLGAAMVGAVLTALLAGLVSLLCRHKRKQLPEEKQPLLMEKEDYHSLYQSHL

IC50 [1] [µM]	inhibition at 200 µM (human TYR (tyrosinase)) [%]	SMILES
115	–	NC(=O)[C@@H](N)CS [C-NH2, L-Cysteinamide]
–	70	N[C@@H](CS)C(=O)O [L-cysteine]
